Source: patent publication US20250084082A1, “HUPERZINE B CRYSTAL AND PREPARATION AND APPLICATION THEREOF” (priority 2021, published 2025)

Legend:
[1] = target: T1, BuchE (Rattus norvegicus, UniProt Q9JKC1); experiment: Cholinesterase inhibitory activity in vivo: BuchE activity in rat serum after gavage; design: species or system SD rats
T1 construct: The effect of Huperzine B on BuchE activity in the serum of rats; from tissue; host or cells: SD rat serum (ex vivo after gavage)
Experimental: Experimental animals: SD rats, clean grade, male, body weight 180-200 g, provided by Shanghai SLAC Laboratory Animal Co., Ltd, free to drink and ingest during the experimental period, indoor temperature 22-24° C., humidity 45-70%.
Main reagents: S-Butyrylthiocholine iodide, S-Acetylthiocholine iodide, Kaumas Brilliant Blue, sodium hydroxide, ethyl carbamate (urethane), phosphoric acid, sodium chloride, sodium bicarbonate, potassium dihydrogen phosphate, ethanol, sodium dodecyl sulfate, 5,5′-Dithiobis-(2-nitrobenzoic acid) (DTNB), hydrochloric acid; the above chemical reagents were purchased from Sinopharm Chemical Reagent Co., Ltd. Physiological saline, product of Shanghai Bangjing Industry Co., Ltd; bovine serum albumin, purchased from Meilun Biologicals.
The equation for calculating the activity and the activity rate of “butyrylcholinesterase” was the same as that for “acetylcholinesterase”.
Statistical analysis: SPSS 18 statistical software and EXCEL were applied. Measurement data were expressed as “mean±standard deviation (x±s)”, t-test was used for comparison between two groups, and LSD method was used for pairwise comparison between groups when there was homogeneity of variance, and Dunnett's method was used for analysis when there was heterogeneity of variance. P<0.05 indicates significant differences.

[2] = Stability of crystals: high humidity test (RH 75±5%); type: physicochemical; details: around 25° C.
Excerpt: (§1) The conditions and methods for detecting the relevant substances involved in the present invention are high performance liquid chromatography determination.
The samples were taken and tested on day 5 and day 10, respectively, and the results were compared with that of day 0.

[3] = Stability of crystals: strong light irradiation test (4,500±500 Lx); type: physicochemical
Excerpt: as §1
The distance was adjusted so that the light intensity was 4,500±500 Lx. The samples were taken and tested on day 5 and day 10, respectively, and the results were compared with that of day 0.

[4] = Stability of crystals: high temperature test (60° C.); type: physicochemical
Excerpt: as §1
The samples were taken and tested on day 5 and day 10, respectively, and the results were compared with those on day 0.The results are shown in Table 5.

[5] = Hygroscopicity test (Chinese Pharmacopoeia 2020); type: physicochemical
Experimental: The test was carried out with reference to the requirements of hygroscopicity test in the General Technical Requirements of Part IV of the Chinese Pharmacopoeia 2020 Edition.
Methods: A dry stoppered glass weighing flask (outer diameter 50 mm, height 15 mm) was placed in a suitable 25° C.±1° C. constant temperature desiccator (with ammonium chloride or ammonium sulfate saturated solution placed in the lower part) or an artificial climate chamber (with a set temperature of 25° C.±1° C. and a relative humidity of 80%±2%) prior to the test, and the weight (m1) was weighed precisely.
The thickness of the test sample was generally 1 mm, and the weight (m2) was weighed precisely. The weighing flask was left open, and was placed in the above constant temperature and humidity conditions together with the cap of the flask for 24 hours.
The weighing flask was closed with the cap and weighed precisely (m3).

[6] = 25° C.±1° C., relative humidity 80%±2%, 24 hours

T1 sequence (Q9JKC1 24-597): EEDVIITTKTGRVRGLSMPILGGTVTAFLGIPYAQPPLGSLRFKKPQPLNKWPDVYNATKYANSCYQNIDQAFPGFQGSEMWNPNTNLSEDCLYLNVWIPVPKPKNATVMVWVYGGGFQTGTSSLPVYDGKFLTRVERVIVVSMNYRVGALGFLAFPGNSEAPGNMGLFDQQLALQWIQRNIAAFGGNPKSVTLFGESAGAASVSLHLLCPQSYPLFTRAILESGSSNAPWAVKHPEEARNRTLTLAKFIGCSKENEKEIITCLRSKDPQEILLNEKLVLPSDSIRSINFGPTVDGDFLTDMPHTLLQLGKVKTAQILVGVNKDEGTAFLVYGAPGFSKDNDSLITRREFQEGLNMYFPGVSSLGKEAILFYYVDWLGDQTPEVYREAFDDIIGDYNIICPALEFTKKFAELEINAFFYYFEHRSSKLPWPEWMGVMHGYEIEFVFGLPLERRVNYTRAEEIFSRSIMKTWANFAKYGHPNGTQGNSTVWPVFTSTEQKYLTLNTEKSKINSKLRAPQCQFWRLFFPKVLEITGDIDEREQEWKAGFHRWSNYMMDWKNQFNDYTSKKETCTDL

Row | SMILES | Appearance ([2]; day 0) | Content ([2]; day 0) | Moisture ([2]; day 0) | Appearance ([2]; day 5) | Content ([2]; day 5) | Moisture ([2]; day 5) | Appearance ([2]; day 10) | Content ([2]; day 10) | Moisture ([2]; day 10) | Appearance ([3]; day 0) | Content ([3]; day 0) | relevant substances ([3]; day 0) | Appearance ([3]; day 5) | Content ([3]; day 5) | relevant substances ([3]; day 5) | Appearance ([3]; day 10) | Content ([3]; day 10) | relevant substances ([3]; day 10) | Appearance ([4]; day 0) | Content ([4]; day 0) | further results
1 | CC1=CC2Cc3[nH]c(=O)ccc3C3(C1)NCCCC23 [hupB, (4aR, 5R, 10bR)-1,2,3,4,4a,4,6,10b octahydro-12-methyl-5,10b-propeno-1,7-phenanthrolin-8 (7H)-one] |  |  |  |  |  |  |  |  |  |  |  |  |  |  |  |  |  |  |  |  | inhibition at 0.12 mg/kg ([1]; po, rat serum BuchE, 0.12 mg/kg by gavage, x±s, read-out: Inhibition rate (%)): 1 ± 46.5%; inhibition at 0.24 mg/kg ([1]; po, rat serum BuchE, 0.24 mg/kg by gavage, x±s, read-out: Inhibition rate (%)): 19.9 ± 28.1%; inhibition at 0.48 mg/kg ([1]; po, rat serum BuchE, 0.48 mg/kg by gavage, x±s, read-out: Inhibition rate (%)): 29.2 ± 13.7%; Serum BuchE (nmol/min/mg protein) ([1]; rat serum, 0.12 mg/kg by gavage, x±s): 6.83 ± 3.21 nmol/min/mg protein; Serum BuchE (nmol/min/mg protein) ([1]; rat serum, 0.24 mg/kg by gavage, x±s): 5.53 ± 1.94 nmol/min/mg protein; Serum BuchE (nmol/min/mg protein) ([1]; rat serum, 0.48 mg/kg by gavage, x±s): 4.88 ± 0.94 nmol/min/mg protein
2 | CC1=CC2Cc3[nH]c(=O)ccc3C3(C1)NCCCC23 [Crystal form B, (4aR, 5R, 10bR)-1,2,3,4,4a,4,6,10b octahydro-12-methyl-5,10b-propeno-1,7-phenanthrolin-8 (7H)-one] | Off-white powder | 99.8% | 6.13% | Off-white powder | 99.7% | 7.13% | Off-white powder | 99.6% | 7.53% | Off-white powder | 99.8% | 0.18 | Off-white powder | 99.5% | 0.32 | Off-white powder | 98.6% | 0.49 | Off-white | 99.8% | relevant substances ([4]; day 0): 0.18; Appearance ([4]; day 5): Off-white; Content ([4]; day 5): 99.5%; relevant substances ([4]; day 5): 0.29; Appearance ([4]; day 10): Off-white; Content ([4]; day 10): 98.9%; relevant substances ([4]; day 10): 0.41; Percentage of weight gain (%) [5, 6]: 2.88%
3 | CC1=CC2Cc3[nH]c(=O)ccc3C3(C1)NCCCC23 [Crystal form A, (4aR, 5R, 10bR)-1,2,3,4,4a,4,6,10b octahydro-12-methyl-5,10b-propeno-1,7-phenanthrolin-8 (7H)-one] | Off-white powder | 100.1% | 6.93% | Off-white powder | 100.2% | 6.95% | Off-white powder | 99.9% | 6.98% | Off-white powder | 100.1% | 0.12 | Off-white powder | 99.8% | 0.22 | Off-white powder | 98.9% | 0.28 | Off-white | 100.1% | relevant substances ([4]; day 0): 0.12; Appearance ([4]; day 5): Off-white; Content ([4]; day 5): 100.2%; relevant substances ([4]; day 5): 0.19; Appearance ([4]; day 10): Off-white; Content ([4]; day 10): 99.7%; relevant substances ([4]; day 10): 0.21; Conclusion: (hygroscopicity) [5, 6]: No or almost no; Percentage of weight gain (%) [5, 6]: 0.05%; hygroscopicity (in words) ([5]; compared with Huperzine B crystal form B): low hygroscopicity; effect on BuchE activity in the rat serum (in words) ([1]; rat serum): certain inhibitory effect
